Laboratory results from patent US10913727B2, “Modulators of the integrated stress pathway” (Calico Life Sciences LLC, priority 2016, dated 2021).

Test system: HEK293T cells carrying the ATF4 luciferase reporter
Assay: ATF4-Luc assay, in vitro model of Vanishing Cell White Matter Disease (VWMD)
Format: cell-based
Settings: Homo sapiens, HEK-293T, 1 μg/mL tunicamycin, 7 hours, One Glo luminescence
How it was run: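 Reporter cells were stably generated by retroviral transduction and puromycin selection, then seeded at 30,000 cells/well. Next day, cells received 1 μg/mL tunicamycin with 200 nM test compound for 7 h, and luciferase luminescence was read with a one-step reagent. Values reported as EC50.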

Row | SMILES | EC50
1 | O=C(COc1ccc(Cl)c(F)c1)NC12CCC(NC(=O)c3ccccn3)(CC1)[C@@H](O)C2 [Compound 588, N-{(2S)-4-[2-(4-chloro-3-fluorophenoxy)acetamido]-2-hydroxybicyclo[2.2.2]octan-1-yl}pyridine-2-carboxamide] | < 50 nM
2 | Cc1ccc(C(=O)NC23CCC(NC(=O)COc4ccc(Cl)c(F)c4)(CC2)C[C@@H]3O)nc1 [Compound 589, N-{(2S)-4-[2-(4-chloro-3-fluorophenoxy)acetamido]-2-hydroxybicyclo[2.2.2]octan-1-yl}-5-methylpyridine-2-carboxamide] | 50 to 250 nM
3 | O=C(COc1ccc(Cl)c(F)c1)NC12CC(NC(=O)c3nc(C4CC4)cs3)(C1)C2 [Compound 590, N-{3-[2-(4-chloro-3-fluorophenoxy)acetamido]bicyclo[1.1.1]pentan-1-yl}-4-cyclopropyl-1,3-thiazole-2-carboxamide] | 50 to 250 nM
4 | O=C(COc1ccc(Cl)c(F)c1)NC12CCC(NC(=O)c3ccsc3)(CC1)CC2O (stereo not drawn) [Compound 591, N-{4-[2-(4-chloro-3-fluorophenoxy)acetamido]-3-hydroxybicyclo[2.2.2]octan-1-yl}thiophene-3-carboxamide] | 50 to 250 nM
5 | O=C(COc1ccc(Cl)c(F)c1)NC12CCC(NC(=O)c3cscn3)(CC1)CC2O (stereo not drawn) [Compound 592, N-{4-[2-(4-chloro-3-fluorophenoxy)acetamido]-3-hydroxybicyclo[2.2.2]octan-1-yl}-1,3-thiazole-4-carboxamide] | 50 to 250 nM
6 | O=C(COc1ccc(Cl)c(F)c1)NC12CCC(NC(=O)c3cncs3)(CC1)CC2O (stereo not drawn) [Compound 593, N-{4-[2-(4-chloro-3-fluorophenoxy)acetamido]-3-hydroxybicyclo[2.2.2]octan-1-yl}-1,3-thiazole-5-carboxamide] | 50 to 250 nM
7 | O=C(COc1ccc(Cl)c(F)c1)NC12CCC(NC(=O)c3cc4ccccn4n3)(CC1)CC2O (stereo not drawn) [Compound 594, N-{4-[2-(4-chloro-3-fluorophenoxy)acetamido]-3-hydroxybicyclo[2.2.2]octan-1-yl}pyrazolo[1,5-a]pyridine-2-carboxamide] | 50 to 250 nM
8 | O=C(COc1ccc(Cl)c(F)c1)NC12CCC(NC(=O)c3cnc4ccccn34)(CC1)CC2O (stereo not drawn) [Compound 595, N-{4-[2-(4-chloro-3-fluorophenoxy)acetamido]-3-hydroxybicyclo[2.2.2]octan-1-yl}imidazo[1,2-a]pyridine-3-carboxamide] | 1000 to 2000 nM
9 | O=C(COc1ccc(Cl)c(F)c1)NC12CCC(NC(=O)c3cnn4ccccc34)(CC1)CC2O (stereo not drawn) [Compound 596, N-{4-[2-(4-chloro-3-fluorophenoxy)acetamido]-3-hydroxybicyclo[2.2.2]octan-1-yl}pyrazolo[1,5-a]pyridine-3-carboxamide] | 250 to 1000 nM
10 | Cc1ccc2nc(C(=O)NC34CCC(NC(=O)COc5ccc(Cl)c(F)c5)(CC3)C(O)C4)cn2c1 (stereo not drawn) [Compound 597, N-{4-[2-(4-chloro-3-fluorophenoxy)acetamido]-3-hydroxybicyclo[2.2.2]octan-1-yl}-6-methylimidazo[1,2-a]pyridine-2-carboxamide] | 250 to 1000 nM
11 | Cc1ccn2cc(C(=O)NC34CCC(NC(=O)COc5ccc(Cl)c(F)c5)(CC3)C(O)C4)nc2c1 (stereo not drawn) [Compound 598, N-{4-[2-(4-chloro-3-fluorophenoxy)acetamido]-3-hydroxybicyclo[2.2.2]octan-1-yl}-7-methylimidazo[1,2-a]pyridine-2-carboxamide] | 50 to 250 nM
12 | Cc1cccn2cc(C(=O)NC34CCC(NC(=O)COc5ccc(Cl)c(F)c5)(CC3)C(O)C4)nc12 (stereo not drawn) [Compound 599, N-{4-[2-(4-chloro-3-fluorophenoxy)acetamido]-3-hydroxybicyclo[2.2.2]octan-1-yl}-8-methylimidazo[1,2-a]pyridine-2-carboxamide] | 250 to 1000 nM
13 | O=C(COc1ccc(Cl)c(F)c1)NC12CCC(NC(=O)c3cn4cc(F)ccc4n3)(CC1)CC2O (stereo not drawn) [Compound 600, N-{4-[2-(4-chloro-3-fluorophenoxy)acetamido]-3-hydroxybicyclo[2.2.2]octan-1-yl}-6-fluoroimidazo[1,2-a]pyridine-2-carboxamide] | 250 to 1000 nM
14 | O=C(COc1ccc(Cl)c(F)c1)NC12CCC(NC(=O)c3cn4ccccc4n3)(CC1)CC2O (stereo not drawn) [Compound 601, N-{4-[2-(4-chloro-3-fluorophenoxy)acetamido]-3-hydroxybicyclo[2.2.2]octan-1-yl}imidazo[1,2-a]pyridine-2-carboxamide] | 250 to 1000 nM
15 | Cn1nccc1C(=O)NC12CCC(NC(=O)COc3ccc(Cl)c(F)c3)(CC1)C(O)C2 (stereo not drawn) [Compound 602, N-{4-[2-(4-chloro-3-fluorophenoxy)acetamido]-3-hydroxybicyclo[2.2.2]octan-1-yl}-1-methyl-1H-pyrazole-5-carboxamide] | 250 to 1000 nM
16 | CCn1nc(C)cc1C(=O)NC12CCC(NC(=O)COc3ccc(Cl)c(F)c3)(CC1)C(O)C2 (stereo not drawn) [Compound 603, N-{4-[2-(4-chloro-3-fluorophenoxy)acetamido]-3-hydroxybicyclo[2.2.2]octan-1-yl}-1-ethyl-3-methyl-1H-pyrazole-5-carboxamide] | 250 to 1000 nM
17 | Cc1oncc1C(=O)NC12CCC(NC(=O)COc3ccc(Cl)c(F)c3)(CC1)C(O)C2 (stereo not drawn) [Compound 604, N-{4-[2-(4-chloro-3-fluorophenoxy)acetamido]-3-hydroxybicyclo[2.2.2]octan-1-yl}-5-methyl-1,2-oxazole-4-carboxamide] | > 2000 nM
18 | Cc1nocc1C(=O)NC12CCC(NC(=O)COc3ccc(Cl)c(F)c3)(CC1)C(O)C2 (stereo not drawn) [Compound 605, N-{4-[2-(4-chloro-3-fluorophenoxy)acetamido]-3-hydroxybicyclo[2.2.2]octan-1-yl}-3-methyl-1,2-oxazole-4-carboxamide] | > 2000 nM
19 | CCc1cc(C(=O)NC23CCC(NC(=O)COc4ccc(Cl)c(F)c4)(CC2)C(O)C3)no1 (stereo not drawn) [Compound 606, N-{4-[2-(4-chloro-3-fluorophenoxy)acetamido]-3-hydroxybicyclo[2.2.2]octan-1-yl}-5-ethyl-1,2-oxazole-3-carboxamide] | 50 to 250 nM
20 | CC(C)c1nc(C(=O)NC23CCC(NC(=O)COc4ccc(Cl)c(F)c4)(CC2)C(O)C3)co1 (stereo not drawn) [Compound 607, N-{4-[2-(4-chloro-3-fluorophenoxy)acetamido]-3-hydroxybicyclo[2.2.2]octan-1-yl}-2-(propan-2-yl)-1,3-oxazole-4-carboxamide] | 50 to 250 nM
21 | O=C(COc1ccc(Cl)c(F)c1)NC12CC(NC(=O)c3cnc4[nH]ncc4c3)(C1)C2 [Compound 608, N-{3-[2-(4-chloro-3-fluorophenoxy)acetamido]bicyclo[1.1.1]pentan-1-yl}-1H-pyrazolo[3,4-b]pyridine-5-carboxamide] | 50 to 250 nM
22 | O=C(COc1ccc(Cl)c(F)c1)NC12CC(Nc3ccn4nccc4n3)(C1)C2 [Compound 609, 2-(4-chloro-3-fluorophenoxy)-N-{3-[(pyrazolo[1,5-a]pyrimidin-5-yl)amino]bicyclo[1.1.1]pentan-1-yl}acetamide] | 1000 to 2000 nM
23 | Cc1cnn2ccc(NC34CC(NC(=O)COc5ccc(Cl)c(F)c5)(C3)C4)nc12 [Compound 610, 2-(4-chloro-3-fluorophenoxy)-N-{3-[(3-methylpyrazolo[1,5-a]pyrimidin-5-yl)amino]bicyclo[1.1.1]pentan-1-yl}acetamide] | 1000 to 2000 nM
24 | O=C(COc1ccc(Cl)c(F)c1)NC12CCC(NC(=O)c3cccs3)(CC1)CC2O (stereo not drawn) [Compound 611, N-{4-[2-(4-chloro-3-fluorophenoxy)acetamido]-3-hydroxybicyclo[2.2.2]octan-1-yl}thiophene-2-carboxamide] | < 50 nM
